Experimental data from patent US20240158348A1, “HERBICIDAL CYCLIC AMIDES N-SUBSTITUTED WITH A HALOALKYLSULFONYLANILIDE GROUP” (FMC Corporation, priority 2021, published 2024).

How the values were obtained:
Type in all cases: in vivo
[1] = test system: kochia (Bassia scoparia); assay: Test C preemergence, kochia; settings: 0 is no effect, 100 is complete control
Source text: (§1) Seeds of plant species selected from blackgrass (Alopecurus myosuroides), corn (Zea mays), foxtail, giant (giant foxtail, Setaria faberi), goosegrass (Eleusine indica), kochia (Bassia scoparia), oat, wild (wild oat, Avena fatua), pigweed, palmer (palmer amaranth, Amaranthus palmeri), ragweed (common ragweed, Ambrosia artemisiifolia), ryegrass, Italian (Italian ryegrass, Lolium multiflorum), soybean (Glycine max) and wheat (Triticum aestivum) were planted into a blend of loam soil and sand and treated preemergence with a directed soil spray using test chemicals formulated in a non-phytotoxic solvent mixture which included a surfactant.
(§2) At the same time, plants selected from these crop and weed species and also galium (catchweed bedstraw, Galium aparine) and horseweed (Erigeron canadensis) were planted in pots containing the same blend of loam soil and sand and treated with postemergence applications of test chemicals formulated in the same manner. Plants ranged in height from 2 to 10 cm and were in the one- to two-leaf stage for the postemergence treatment. Treated plants and untreated controls were maintained in a greenhouse for 10 or 12 days, after which time all treated plants were compared to untreated controls and visually evaluated for injury. Plant response ratings, summarized in Table A, are based on a 0 to 100 scale where 0 is no effect and 100 is complete control. A dash (-) response means no test result.

[2] = test system: foxtail, giant (giant foxtail, Setaria faberi); assay: Test C preemergence, giant foxtail; settings: 0 is no effect, 100 is complete control
Source text: as §1, §2

[3] = test system: ryegrass, Italian (Italian ryegrass, Lolium multiflorum); assay: Test C preemergence, Italian ryegrass; settings: 0 is no effect, 100 is complete control
Source text: as §1, §2

[4] = test system: blackgrass (Alopecurus myosuroides); assay: Test C preemergence, blackgrass; settings: 0 is no effect, 100 is complete control
Source text: as §1, §2

[5] = test system: ducksalad (Heteranthera limosa); assay: Test D flooded paddy test, ducksalad; set-up: key: 0 = no effect, 100 = complete control; settings: 250 g ai/ha, Flood; applied to paddy water at 2-leaf stage; visual rating after 13 days; scale 0 (no effect) to 100 (complete control)
Procedure: (§3) Plant species in the flooded paddy test selected from barnyardgrass (Echinochloa crusgalli), ducksalad (Heteranthera limosa), rice (Oryza sativa), and sedge, umbrella (small-flower umbrella sedge, Cyperus difformis) were grown to the 2-leaf stage for testing. At time of treatment, test pots were flooded to 3 cm above the soil surface, treated by application of test compounds directly to the paddy water, and then maintained at that water depth for the duration of the test. Treated plants and controls were maintained in a greenhouse for 13 days, after which time all species were compared to controls and visually evaluated. Plant response ratings, summarized in Table B, are based on a scale of 0 to 100 where 0 is no effect and 100 is complete control. A dash (-) response means no test result.

[6] = test system: oat, wild (wild oat, Avena fatua); assay: Test C postemergence, wild oat
Source text: as §1, §2

[7] = test system: wheat (Triticum aestivum); assay: Test C preemergence, wheat; settings: 0 is no effect, 100 is complete control
Source text: as §1, §2

[8] = test system: corn (Zea mays); assay: Test C postemergence, corn
Source text: as §1, §2

[9] = test system: pigweed, palmer (palmer amaranth, Amaranthus palmeri); assay: Test C preemergence, palmer amaranth; settings: 0 is no effect, 100 is complete control
Source text: as §1, §2

[10] = test system: ryegrass, Italian (Italian ryegrass, Lolium multiflorum); assay: Test C postemergence, Italian ryegrass
Source text: as §1, §2

[11] = test system: kochia (Bassia scoparia); assay: Test C postemergence, kochia
Source text: as §1, §2

[12] = test system: blackgrass (Alopecurus myosuroides); assay: Test C postemergence, blackgrass; settings: 125 g ai/ha Postemergence; 0 is no effect, 100 is complete control
[13] = test system: goosegrass (Eleusine indica); assay: Test C postemergence, goosegrass
Source text: as §1, §2

[14] = test system: goosegrass (Eleusine indica); assay: Test C preemergence, goosegrass; settings: 0 is no effect, 100 is complete control
Source text: as §1, §2

[15] = test system: sedge, umbrella (small-flower umbrella sedge, Cyperus difformis); assay: Test D flooded paddy test, umbrella sedge; set-up: key: 0 = no effect, 100 = complete control; settings: 250 g ai/ha, Flood; applied to paddy water at 2-leaf stage; visual rating after 13 days; scale 0 (no effect) to 100 (complete control)
Procedure: as §3

[16] = test system: soybean (Glycine max); assay: Test C postemergence, soybean
Source text: as §1, §2

[17] = test system: ragweed (common ragweed, Ambrosia artemisiifolia); assay: Test C preemergence, ragweed; settings: 0 is no effect, 100 is complete control
Source text: as §1, §2

[18] = test system: galium (catchweed bedstraw, Galium aparine); assay: Test C postemergence, galium
Source text: as §1, §2

[19] = test system: oat, wild (wild oat, Avena fatua); assay: Test C preemergence, wild oat; settings: 0 is no effect, 100 is complete control
Source text: as §1, §2

[20] = test system: pigweed, palmer (palmer amaranth, Amaranthus palmeri); assay: Test C postemergence, palmer amaranth
Source text: as §1, §2

[21] = test system: blackgrass (Alopecurus myosuroides); assay: Test C postemergence, blackgrass; settings: 31 g ai/ha Postemergence; visual injury, 0 to 100 scale (0 no effect, 100 complete control)
Source text: as §1, §2

[22] = test system: wheat (Triticum aestivum); assay: Test C postemergence, wheat
Source text: as §1, §2

[23] = test system: horseweed (Erigeron canadensis); assay: Test C postemergence, horseweed
Source text: as §1, §2

[24] = test system: foxtail, giant (giant foxtail, Setaria faberi); assay: Test C postemergence, giant foxtail
Source text: as §1, §2

[25] = test system: barnyardgrass (Echinochloa crusgalli); assay: Test D flooded paddy test, barnyardgrass; set-up: key: 0 = no effect, 100 = complete control; settings: 250 g ai/ha, Flood; applied to paddy water at 2-leaf stage; visual rating after 13 days; scale 0 (no effect) to 100 (complete control)
Procedure: as §3

[26] = test system: ragweed (common ragweed, Ambrosia artemisiifolia); assay: Test C postemergence, ragweed
Source text: as §1, §2

[27] = test system: rice (Oryza sativa); assay: Test D flooded paddy test, rice; set-up: key: 0 = no effect, 100 = complete control; settings: 250 g ai/ha, Flood; applied to paddy water at 2-leaf stage; visual rating after 13 days; scale 0 (no effect) to 100 (complete control)
Procedure: as §3

[28] = test system: soybean (Glycine max); assay: Test C preemergence, soybean; settings: 0 is no effect, 100 is complete control
Source text: as §1, §2

[29] = test system: corn (Zea mays); assay: Test C preemergence, corn; settings: 0 is no effect, 100 is complete control
Source text: as §1, §2

[30] = 31 g ai/ha Postemergence, visual injury, 0 to 100 scale (0 no effect, 100 complete control)
[31] = 125 g ai/ha Postemergence, 0 is no effect, 100 is complete control

For `CC(=O)N(c1cc(N2CCC(OC3CC3)C2=O)c(C)cc1C)S(=O)(=O)C(F)(F)F` (stereo not shown) [Compound 17], the “Plant response rating (0 to 100 scale), Kochia” value ([1]; 31 g ai/ha Preemergence) was 80, the “Plant response rating (0 to 100 scale), Kochia” value ([1]; 125 g ai/ha Preemergence) was 100 and the “Plant response rating (0 to 100 scale), Foxtail, Giant” value ([2]; 31 g ai/ha Preemergence) was 90. For the same molecule, the “Plant response rating (0 to 100 scale), Foxtail, Giant” value ([2]; 125 g ai/ha Preemergence) was 100, the “Plant response rating (0 to 100 scale), Ryegrass, Italian” value ([3]; 31 g ai/ha Preemergence) was 100 and the “Plant response rating (0 to 100 scale), Ryegrass, Italian” value ([3]; 125 g ai/ha Preemergence) was 100. For the same molecule, the “Plant response rating (0 to 100 scale), Blackgrass” value ([4]; 31 g ai/ha Preemergence) was 80, the “Plant response rating (0 to 100 scale), Blackgrass” value ([4]; 125 g ai/ha Preemergence) was 90 and the “Plant response rating, Ducksalad” value [5] was 95. The “Oat, Wild plant response rating” value [6, 30] was 30, the “Plant response rating (0 to 100 scale), Oat, Wild” value [6, 31] was 70 and the “Plant response rating (0 to 100 scale), Wheat” value ([7]; 31 g ai/ha Preemergence) was 30. The “Plant response rating (0 to 100 scale), Wheat” value ([7]; 125 g ai/ha Preemergence) was 100, the “Corn plant response rating” value [8, 30] was 90 and the “Plant response rating (0 to 100 scale), Corn” value [8, 31] was 90. The “Plant response rating (0 to 100 scale), Pigweed, Palmer” value ([9]; 31 g ai/ha Preemergence) was 80, the “Plant response rating (0 to 100 scale), Pigweed, Palmer” value ([9]; 125 g ai/ha Preemergence) was 100 and the “Ryegrass, Italian plant response rating” value [10, 30] was 60. The “Plant response rating (0 to 100 scale), Ryegrass, Italian” value [10, 31] was 90, the “Kochia plant response rating” value [11, 30] was 80 and the “Plant response rating (0 to 100 scale), Kochia” value [11, 31] was 90. For the same molecule, the “Plant response rating (0 to 100 scale), Blackgrass” value [12] was 80, the “Goosegrass plant response rating” value [13, 30] was 90 and the “Plant response rating (0 to 100 scale), Goosegrass” value [13, 31] was 90. The “Plant response rating (0 to 100 scale), Goosegrass” value ([14]; 31 g ai/ha Preemergence) was 100, the “Plant response rating (0 to 100 scale), Goosegrass” value ([14]; 125 g ai/ha Preemergence) was 100 and the “Plant response rating, Sedge, Umbrella” value [15] was 95. The “Soybean plant response rating” value [16, 30] was 60, the “Plant response rating (0 to 100 scale), Soybean” value [16, 31] was 80 and the “Plant response rating (0 to 100 scale), Ragweed” value ([17]; 31 g ai/ha Preemergence) was 80. For the same molecule, the “Plant response rating (0 to 100 scale), Ragweed” value ([17]; 125 g ai/ha Preemergence) was 90, the “Galium plant response rating” value [18, 30] was 90 and the “Plant response rating (0 to 100 scale), Galium” value [18, 31] was 100. The “Plant response rating (0 to 100 scale), Oat, Wild” value ([19]; 31 g ai/ha Preemergence) was 90, the “Plant response rating (0 to 100 scale), Oat, Wild” value ([19]; 125 g ai/ha Preemergence) was 100 and the “Pigweed, Palmer plant response rating” value [20, 30] was 40. The “Plant response rating (0 to 100 scale), Pigweed, Palmer” value [20, 31] was 90, the “Blackgrass plant response rating” value [21] was 70 and the “Wheat plant response rating” value [22, 30] was 70. For the same molecule, the “Plant response rating (0 to 100 scale), Wheat” value [22, 31] was 70, the “Horseweed plant response rating” value [23, 30] was 70 and the “Plant response rating (0 to 100 scale), Horseweed” value [23, 31] was 100. The “Foxtail, Giant plant response rating” value [24, 30] was 90, the “Plant response rating (0 to 100 scale), Foxtail, Giant” value [24, 31] was 90 and the “Plant response rating, Barnyardgrass” value [25] was 85. The “Ragweed plant response rating” value [26, 30] was 70, the “Plant response rating (0 to 100 scale), Ragweed” value [26, 31] was 90 and the “Plant response rating, Rice” value [27] was 15. The “Plant response rating (0 to 100 scale), Soybean” value ([28]; 31 g ai/ha Preemergence) was 80, the “Plant response rating (0 to 100 scale), Soybean” value ([28]; 125 g ai/ha Preemergence) was 100 and the “Plant response rating (0 to 100 scale), Corn” value ([29]; 31 g ai/ha Preemergence) was 70. For the same molecule, the “Plant response rating (0 to 100 scale), Corn” value ([29]; 125 g ai/ha Preemergence) was 90.
